The values below come from US20130197077A1, “Bicyclic Furanones with Low Toxicity for Microbial Control” (priority 2012, published 2013).

In data set [1] the test system is E. coli RP437. The source says:
FIG. 10 is a graph comparing the cytotoxicity of the exemplary bicyclic brominated furanones according to the present invention verses an exemplary conventional brominated furanone relative to E. Coli RP437;

For data set [2], the system named is 3T3 mouse fibroblasts. Kind of data set: Cytotoxicity to mammalian cells, survival (%) by OD450. Format: cell-based. The note with it: 100 μM; 0 h, 24 h and 48 h recovery after removal of drugs. As to the method: (§1) In this test, the mammalian cells used were 3T3 mouse fibroblasts and SK-N-SH human neuroblastomas, and 0 h, 24 h, and 48 h, refer to recovery time of cells after removal of drugs. At the beginning of the experiment, the survival of the cells is assumed to be 100 percent. The survival percentage is calculated using the following formula: […]
(§2) The sample OD was obtained from the wells containing cells and drugs, and the control OD was obtained from wells containing cells+1% DMSO.

Data set [3] deals with SK-N-SH human neuroblastoma. The description is as above. The data set is classed as cell-based. The settings on record: 100 μM; 0 h, 24 h and 48 h recovery after removal of drugs. Here is the method: as §1, §2

Molecules are shown by their SMILES.

With `CC1=C(Br)/C(=C/Br)OC1=O` [BF8], the “toxicity to the growth of E. coli RP437” value in data set [1] is “more toxic”. In addition, in data set [2], the “cytotoxicity to 3T3 mouse fibroblasts” value is reported as “cytotoxic”. In addition, in data set [3], the “cytotoxicity to SK-N-SH human neuroblastomas” value is listed as “cytotoxic”.
